Test systems include 786-0 renal; A549 NSCLC; HCT-15 colon; HOP-62 NSCLC; HOP-92 NSCLC; HS 578T breast; MCF7 breast; NCI-H23 lung; OVCAR-4 ovarian; U251 CNS.
Common to all, as to test: NCI anticancer screen, dose series, 48 h

“And” between values parts separate entries of the source, which are not always exact repeats. Identical values can stand only once.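 Test compounds were applied to cells in 96-well plates for 48 hours at 5 doses. Abbreviation: GI50, concentration required for 50% inhibition of growth. TGI is the concentration that stops growth completely.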

`CC[C@H](C)[C@H](NC(=O)NC(C)(C)C)C(=O)N(C)[C@H](C[C@@H](OC(C)=O)c1nc(C(=O)N[C@@H](Cc2ccccc2)C[C@H](C)C(=O)OC)cs1)C(C)C`: the GI50 in the test with 786-0 renal is 0.609 µM; in the test with A549 NSCLC, 1.15 µM; with HCT-15 colon, 0.686 µM; in the test with HOP-62 NSCLC it was 0.846 µM; in the test on HOP-92 NSCLC, 3 µM; with HS 578T breast, 0.792 µM. For the same compound, the GI50 in the test on MCF7 breast is 0.123 µM; in the test on NCI-H23 lung, 0.825 µM; in the test with OVCAR-4 ovarian it was 1.21 µM; in the test with U251 CNS, 0.82 µM. Besides, the TGI was 4.59 µM with 786-0 renal; greater than 25 µM in the test with A549 NSCLC; 6.95 µM in the test with HCT-15 colon; greater than 25 µM in the test with HOP-62 NSCLC; greater than 25 µM in the test with HOP-92 NSCLC; greater than 15.3 µM with HS 578T breast. In addition, the TGI in the test on MCF7 breast, in the test with NCI-H23 lung, in the test on OVCAR-4 ovarian and in the test with U251 CNS was greater than 25 µM in each case.
`Cc1ccc2nc3c(n2c1)C(=O)C(=O)c1ccccc1-3`: the GI50 with 786-0 renal was 0.527 µM; in the test with A549 NSCLC, 0.199 µM; in the test on HCT-15 colon, 0.17 µM; in the test on HOP-62 NSCLC it was 0.353 µM; in the test on HOP-92 NSCLC, 0.71 µM; with HS 578T breast, 0.213 µM. Moreover, the GI50 was 0.14 µM in the test on MCF7 breast, 0.217 µM in the test with NCI-H23 lung, 0.21 µM with OVCAR-4 ovarian and 0.176 µM in the test on U251 CNS. The TGI with 786-0 renal turned out to be 1.15 µM; in the test with A549 NSCLC it was 0.62 µM; in the test with HCT-15 colon, 0.416 µM; in the test with HOP-62 NSCLC it was 0.961 µM; in the test with HOP-92 NSCLC it was 2.17 µM; in the test on HS 578T breast, 0.618 µM. Also, the TGI with MCF7 breast stood at 0.308 µM; with NCI-H23 lung, 0.576 µM; in the test on OVCAR-4 ovarian, 0.537 µM; in the test with U251 CNS it was 0.419 µM.
For `COc1ccc(C2=N[C@@H](c3ccc(Cl)cc3)[C@@H](c3ccc(Cl)cc3)N2C(=O)N2CCNC(=O)C2)c(OC(C)C)c1`, the GI50 with 786-0 renal is 14.9 µM and 16.6 µM and 17.3 µM; with A549 NSCLC it was 13.3 µM and 3.9 µM and 3.65 µM; in the test with HCT-15 colon it was 14.3 µM and 14.5 µM and 14.9 µM; with HOP-62 NSCLC, 16.5 µM and 15 µM and 16.1 µM; in the test with HOP-92 NSCLC it was 14.9 µM and 10.7 µM; with HS 578T breast, 15.6 µM and 17.3 µM and 17 µM. Further, the GI50 with MCF7 breast is 13 µM and 2.43 µM and 2.27 µM; in the test on NCI-H23 lung, 16 µM and 15.8 µM and 16.4 µM; with OVCAR-4 ovarian, 12.1 µM and 12.5 µM and 13.7 µM; with U251 CNS it was 13.7 µM and 14.8 µM and 16.2 µM. Also, the TGI in the test with 786-0 renal is 29 µM and 32.6 µM and 34 µM; with A549 NSCLC, 27.4 µM and 18.4 µM and 17.4 µM; in the test with HCT-15 colon it was 32.3 µM and 28.7 µM and 30.2 µM; in the test on HOP-62 NSCLC, 31.1 µM and 30.5 µM and 33.3 µM; with HOP-92 NSCLC, 31.9 µM and 23.9 µM and 24.8 µM; with HS 578T breast it was 44 µM and 56 µM and 49.3 µM. The TGI with MCF7 breast was 28.2 µM and 12.9 µM and 13 µM; in the test on NCI-H23 lung, 32.1 µM and 33.2 µM and 34.8 µM; with OVCAR-4 ovarian it was 24.9 µM and 26 µM and 31.5 µM; in the test with U251 CNS, 27.2 µM and 29.5 µM and 31.6 µM.
`OCCn1cc(-c2cnc3nnn(Cc4ccc5ncccc5c4)c3n2)cn1`: the GI50 was greater than 100 µM in the test with 786-0 renal; greater than 100 µM with A549 NSCLC; greater than 100 µM in the test with HCT-15 colon; greater than 100 µM in the test with HOP-62 NSCLC; 13 µM with HOP-92 NSCLC; greater than 100 µM with HS 578T breast. Besides, the GI50 with MCF7 breast, in the test with NCI-H23 lung, in the test with OVCAR-4 ovarian and with U251 CNS was greater than 100 µM throughout. The TGI in the test with 786-0 renal, with A549 NSCLC, in the test with HCT-15 colon, in the test with HOP-62 NSCLC, in the test on HOP-92 NSCLC and in the test with HS 578T breast was greater than 100 µM throughout. Besides, the TGI in the test on MCF7 breast, with NCI-H23 lung, in the test with OVCAR-4 ovarian and in the test on U251 CNS was greater than 100 µM throughout.
As for `COc1ccc(/C=C\c2cc(OC)c(OC)c(OC)c2)cc1OCC(=O)Nc1nc2ccccc2s1`, the GI50 with 786-0 renal is 6.23 µM; in the test with A549 NSCLC, 0.31 µM; in the test on HCT-15 colon, 0.0519 µM; in the test on HOP-62 NSCLC, 0.298 µM; with HOP-92 NSCLC, 0.204 µM; in the test on HS 578T breast, 26 µM. Also, the GI50 is 0.113 µM in the test on MCF7 breast, 0.0966 µM in the test on NCI-H23 lung, 0.476 µM in the test on OVCAR-4 ovarian and 0.0416 µM in the test on U251 CNS. The TGI was greater than 100 µM in the test on 786-0 renal; greater than 100 µM in the test with A549 NSCLC; greater than 100 µM in the test with HCT-15 colon; greater than 100 µM in the test with HOP-62 NSCLC; greater than 31.1 µM with HOP-92 NSCLC; greater than 100 µM with HS 578T breast. In addition, the TGI was greater than 100 µM in the test on MCF7 breast, greater than 100 µM with NCI-H23 lung, greater than 100 µM in the test with OVCAR-4 ovarian and greater than 32.9 µM in the test with U251 CNS.
For the compound `CCOC(=O)Cn1c(-c2nonc2NC(=O)c2ccccc2F)nc2ccccc21`, the GI50 is 2.58 µM in the test on 786-0 renal; 0.768 µM in the test on A549 NSCLC; 0.109 µM in the test with HCT-15 colon; 10.8 µM in the test with HOP-62 NSCLC; 22.1 µM in the test with HOP-92 NSCLC; 32.4 µM in the test with HS 578T breast. In addition, the GI50 with MCF7 breast was 1.64 µM; in the test with NCI-H23 lung, greater than 70.1 µM; in the test on OVCAR-4 ovarian, 11.8 µM; in the test on U251 CNS, 0.41 µM. In addition, the TGI in the test with 786-0 renal was greater than 100 µM; in the test on A549 NSCLC it was greater than 56.7 µM; in the test on HCT-15 colon, greater than 100 µM; in the test with HOP-62 NSCLC, 47.7 µM; in the test with HOP-92 NSCLC it was 67.9 µM; in the test on HS 578T breast, greater than 100 µM. The TGI was greater than 100 µM with MCF7 breast, greater than 100 µM in the test with NCI-H23 lung, greater than 100 µM with OVCAR-4 ovarian and 25.8 µM with U251 CNS.
On to `O=C(Nc1ccc(Nc2ccncc2)cc1)c1ccc(Nc2ccnc3ccc([N+](=O)[O-])cc23)cc1[N+](=O)[O-]`, for which the GI50 with 786-0 renal is 6.03 µM; in the test on A549 NSCLC, 3.95 µM; in the test on HCT-15 colon, 35.6 µM; with HOP-62 NSCLC, 24.8 µM; with HOP-92 NSCLC it was 24.6 µM; in the test with HS 578T breast it was 0.691 µM. Also, the GI50 in the test on MCF7 breast was 4.73 µM; with NCI-H23 lung, 20.6 µM; in the test on OVCAR-4 ovarian, 6.01 µM; in the test with U251 CNS it was 2.76 µM. The TGI in the test with 786-0 renal is 42.4 µM; with A549 NSCLC, greater than 44.2 µM; in the test on HCT-15 colon, greater than 100 µM; in the test on HOP-62 NSCLC, greater than 100 µM; with HOP-92 NSCLC it was greater than 74.2 µM; with MCF7 breast, greater than 100 µM. For the same compound, the TGI with NCI-H23 lung is greater than 100 µM; in the test with OVCAR-4 ovarian, greater than 79.1 µM; with U251 CNS, greater than 24.8 µM.

For the origin of these results see PubChem BioAssay (NCI).
